Laboratory results reported in US12285012B2, “Compositions comprising pyridine carboxylate herbicides with acetolactate synthase (ALS) inhibitor herbicides” (Corteva Agriscience LLC, priority 2018, dated 2025).
Several values for one entry are separate records, joined by “and”; a condition that tells them apart may be missing. Identical values can stand only once.

How the values were obtained:
Experiment in all cases: Greenhouse postemergence herbicidal effect
Format in all cases: in vivo
[1] = system: Canadian thistle (CIRAR, Cirsium arvense)
Outline: (§1)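 Injury was rated visually after 20-22 d on a 0 (none) to 100% (complete kill) scale relative to solvent-sprayed controls, with sub-irrigation to avoid wash-off. Rates were given in g ae/ha or g ai/ha depending on component.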

[2] = system: wild chamomile (MATCH, Matricaria chamomilla); details: for Obs % visual injury: MATCH
Outline: as §1

[3] = system: winter rape (BRSNW, Brassica napus); details: for Obs % visual injury: BRSNW
Outline: as §1

[4] = system: wild buckwheat (POLCO, Polygonum convolvulus); details: for Obs % visual injury: POLCO
Outline: as §1

[5] = system: pineapple weed (MATMT, Matricaria discoidea); details: for Obs % visual injury: MATMT
Outline: as §1

[6] = system: pigweed (AMARE, Amaranthus retroflexus); details: for Obs % visual injury: AMARE
Outline: as §1

[7] = system: Russian thistle (SASKR, Salsola kali)
Outline: as §1

[8] = system: wild pansy (VIOTR, Viola tricolor); details: for Obs % visual injury: VIOTR
Outline: as §1

[9] = system: chickweed (STEME, Stellaria media); details: for Obs % visual injury: STEME
Outline: as §1

[10] = system: kochia (KCHSC, Kochia scoparia); details: for Obs % visual injury: KCHSC
Outline: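 Plants at the second or third true leaf stage received overhead spray at 187 L/ha, with the pyridine carboxylate (plus cloquintocet-mexyl safener) alone or with ALS herbicides in 1.25% v/v crop oil. Rates are in g ae/ha or g ai/ha. Visual injury versus solvent-blank controls was scored 0–100% after 20-22 d in the greenhouse.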

[11] = system: common lambsquarters (CHEAL, Chenopodium album L.); details: for Obs % visual injury: CHEAL

## COc1ncc(F)c2nc(S(=O)(=O)Nc3c(F)cccc3F)nn12 [Florasulam, florasulam]
[1]; Florasulam 3.75 g/ha
  % visual injury Obs: 68%
[1]; Florasulam 5 g/ha
  % visual injury: 75%
[2]; Florasulam 3.75 g/ha
  % visual injury Obs: 85%
[2]; Florasulam 5 g/ha
  % visual injury: 85%
  Obs % visual injury: 20%
[3]; Florasulam 5 g/ha
  Obs % visual injury: 35%
  % visual injury: 97%
[3]; Florasulam 3.75 g/ha
  % visual injury Obs: 95%
[4]; Florasulam 3.75 g/ha
  % visual injury Obs: 90%
[4]; Florasulam 5 g/ha
  % visual injury: 87%
[5]; Florasulam 5 g/ha
  % visual injury: 95%
  Obs % visual injury: 65%
[6]; Florasulam 3.75 g/ha
  % visual injury Obs: 100%
[7]; Florasulam 5 g/ha
  % visual injury: 85%
[8]; Florasulam 5 g/ha
  % visual injury: 10%
[9]; Florasulam 5 g/ha
  % visual injury: 100%
[10]; Florasulam 3.75 g/ha
  % visual injury Obs: 70%
[10]; Florasulam 5 g/ha
  % visual injury: 95%
[11]; Florasulam 3.75 g/ha
  % visual injury Obs: 0%

## C#CCOC(=O)c1nc(-c2ccc3cc[nH]c3c2F)c(F)c(N)c1Cl [Compound B, propargyl 4-amino-3-chloro-5-fluoro-6-(7-fluoro-1H-indol-6-yl)pyridine-2-carboxylate]
[1]; CIRAR, Compound B 5 g/ha
  Obs % visual injury: 50%
[1]; Cirsium arvense, post-emergence, 10 g/ha, read-out: % visual injury, Obs
  pest or weed control at 10 g/ha: 55%
[2]; Compound B 10 g/ha
  Obs % visual injury: 20% and 18%
[3]; Compound B 10 g/ha
  Obs % visual injury: 93%
[4]; 10 g/ha
  % visual injury, Obs: 90%
[4]; Compound B 5 g/ha
  Obs % visual injury: 88%
[4]; Compound B 10 g/ha
  Obs % visual injury: 97% and 87%
[5]; Compound B 10 g/ha
  Obs % visual injury: 20%
[6]; 10 g/ha
  % visual injury, Obs: 73%
[6]; Compound B 5 g/ha
  Obs % visual injury: 93%
[6]; Compound B 10 g/ha
  Obs % visual injury: 84% and 94%
[7]; SASKR, Compound B 10 g/ha
  Obs % visual injury: 63%
[8]; 10 g/ha
  % visual injury, Obs: 8%
[8]; Compound B 5 g/ha
  Obs % visual injury: 20%
[8]; Compound B 10 g/ha
  Obs % visual injury: 18%
[9]; 10 g/ha
  % visual injury, Obs: 90%
[9]; Compound B 5 g/ha
  Obs % visual injury: 85%
[9]; Compound B 10 g/ha
  Obs % visual injury: 95%
[10]; Bassia scoparia, post-emergence, 10 g/ha, read-out: % visual injury, Obs
  pest or weed control at 10 g/ha: 73%
[10]; Compound B 5 g/ha
  Obs % visual injury: 60%
[10]; Compound B 10 g/ha
  Obs % visual injury: 65%
[10]; Compound B (without cloquintocet-mexyl safener) 10 g/ha
  Obs % visual injury: 96%
[11]; 10 g/ha
  % visual injury, Obs: 93%
[11]; Compound B 5 g/ha
  Obs % visual injury: 96%
[11]; Compound B 10 g/ha
  Obs % visual injury: 94% and 96%
